{"source": "patent US20250325566A1", "about": "“C[…]-9-TETRAHYDROCANNABINOL AND TERPENES” (Vertanical GmbH, priority 2022, published 2025)", "data": [{"system": "different cancer cell lines (MCF-7, HCT-116, CaCO2)", "experiment": "MTT cytotoxicity assay, single substances vs combination, different cancer cell lines", "assay_type": "cell-based", "conditions": "THC + alpha-bisabolol + guaiol vs single substance, 48 h", "method": "The following cell lines were used for the experiment: CaCO2 (Pharmacelsus), HCT-116 (ATCC, Cat #CCL-247), and MCF-7 (ECACC, Cat #86012803). All cell lines were maintained at 37° C., 5% CO2 and 95% humidity. The medium was replaced three times per week and the monolayer was sub-cultured in a ratio of 1:5 when the culture reaches a confluence of 80%. The specific cultivation medium for each cell line was as follows: CaCO2 cell line was cultured in DMEM (PAN-Biotech, Cat #P04-03500) supplemented with 10% FBS Good (PAN-Biotech, Cat #P40-37500) and 1% NEAA (PAN-Biotech, Cat #P08-32100), HCT-116 cell line was cultured in McCoy's A5 medium (PAN-Biotech, Cat #P04-05500) supplemented with 10% FBS Good, and MCF-7 cell line was cultured in RPMI 1640 (PAN-Biotech, Cat #P04-16500) supplemented with 10% FBS and 2 mM GlutaMAX (Gibco, Cat #35050). All cell culture media were routinely supplemented with 1% Penicillin/Streptomycin (PAN-Biotech, Cat #P06-07100).\nFor the cytotoxicity assay, cells were seeded into 96-well flat bottom microtiter plates at a density of 10,000 cells/well and allowed to attach to the plate for 24 hours before the start of the experiment. […]\nQuantification of viable cells was performed by using commercial MTT assay kit (Cell Proliferation Kit I (MTT), Sigma, Cat #11465007001). […] The formazan crystals formed are solubilized and the resulting coloured solution is quantified.\nCells were prepared as described in Example 1.1. […] Conversion of MTT to formazan was recorded by measuring the absorbance at 570 nm with reference wavelength 650 nm by using a spectrophotometer (Spectramax Plus, Molecular Devices). […]", "values": [{"smiles": "CCCCCc1cc(O)c2c(c1)OC(C)(C)[C@@H]1CCC(C)=C[C@@H]21", "note": "[THC, delta-9-tetrahydrocannabinol]", "IC50 values in combinatory treatment compared to single treatment": "remain unchanged"}, {"smiles": "CC(C)=CCC[C@](C)(O)[C@@H]1CC=C(C)CC1", "note": "[alpha-bisabolol]", "IC50 values in combinatory treatment compared to single treatment": "remarkably reduced"}, {"smiles": "C[C@H]1CC[C@@H](C(C)(C)O)CC2=C1CC[C@@H]2C", "note": "[guaiol]", "IC50 values in combinatory treatment compared to single treatment": "remarkably reduced"}]}]}
